As usually defined, the IC50 is the concentration needed to halve the response being measured. As usually defined, the CC50 is the concentration at which the toxic effect on the cells reaches its halfway point.

Data set [1] relates to detached leaf segments of Triticum aestivum cv. Hereward. Description: Senescence bioassay on wheat leaf segments in dark conditions. The conditions noted are these: dark, 96 h, 25° C., chlorophyll absorbance 665 nm, read-out: Senescence bioassay (IC50). The procedure: (§1) Seeds of winter wheat, Triticum aestivum cv. Hereward, were washed under running water for 24 hours and then sown on perlite soaked with Hogland's solution. They were placed in the growth chamber at 25° C. with a 16/8 h light period at 50 μmol·m^−2·s^−1. After 7 days, the first leaf was fully developed and the second leaf had started to grow. A tip section of the first leaf, approximately 4 cm long, was removed from 4 seedlings and trimmed slightly to a combined weight of 100 mg. The basal ends of the four leaf tips were placed into the 96-wells plate containing 150 μL of the tested derivative solution each. The entire plate was inserted into a plastic box lined with paper tissues soaked in distilled water to prevent leaf sections from drying out. After 96 h incubation in the dark at 25° C., the leaves were removed and chlorophyll extracted by heating at 80° C. for 10 min in 5 mL of 80% ethanol (v/v). The sample volume was then restored to 5 mL by the addition of 80% ethanol (v/v). The absorbance of the extract was recorded at 665 nm. In addition, chlorophyll extracts from fresh leaves and leaf tips incubated in deionised water were measured. The results are means of five replicates and the entire test was repeated at least twice. […] The compounds to be tested were dissolved in dimethylsulfoxide (DMSO) and the solution brought up to 10^−3 M with distilled water. […] The IC50 values were determined for standard (BAP) and novel tested compounds.

The nature of data set [2]: Toxicity towards human skin fibroblasts (Calcein AM assay). The class given is cell-based. The procedure:
Cytotoxicity of the compounds to human skin fibroblasts (BJ cell line) was determined in a standard Calceinovém AM test. Cells were maintained in plastic tissue culture flasks and grown in Dulbecco's modified Eagle's medium for cell culture (DMEM) at 37° C. in 5% CO2 and 100% humidity. Cells were placed into 96-well microtiter plates (Nunc, Denmark) and after 12 hours pre-incubation, the tested compound was added to a final concentration ranging from […]. Cells were incubated for 72 hours. At the end of incubation period Calcein AM was added in PBS to a final concentration of […]. After 1 hour of incubation fluorescence was measured at 485/538 nm (ex/em wavelength) using Fluoroskan Ascent (Labsystems, Finland). IC50 values (the concentration causing reduction of calcein AM conversion to 50%) were calculated from the curves obtained. All experiments were repeated four times with a maximum deviation of 15%. Due to the limited solubility of substances in water, all the tested compounds were dissolved in DMSO and diluted with water to a final concentration.

The subject of a further data set is wheat leaves. Description: Ethylene production (defoliating activity) assay. The arrangement: species or system Triticum aestivum. The conditions noted are these: 10 μM; for Ethylene produced: 96 h in the dark at 25° C., control 270 (±15). The procedure: We investigated the effect of the compounds of the invention on ethylene production in wheat leaves. The leaves were obtained as described in Example 8, placed in 5 mL glass vials and immersed at 10 μM solutions of tested compounds of the invention or TDZ. Distilled water was used as a control treatment. After 96 h incubation in the dark at 25° C., 1 mL of air was taken from the vials and content of ethylene in it was determined using gas chromatography with the flame ionization detector (GC-FID) method described by Fišerová et al. (Fišerová H, Kula E, Klemš M, Reinöhl V (2001) Phytohormones as indicators of the degree of damage in birch (Betula pendula). Biológia 56: 405-409).

In data set [3] the test system is detached leaves of Triticum aestivum cv. Hereward. Description: Membrane lipid peroxidation (MDA, TBA method) in detached wheat leaves in the dark. The conditions noted are these: for MDA: four days in the dark. The protocol:
A typical symptom associated with senescence as a direct consequence of increased reactive oxygen species is membrane lipid peroxidation which produces malondialdehyde (MDA). Therefore the levels of MDA, a decomposition product of lipid peroxidation, were measured in detached wheat leaves that were exposed to the prepared novel derivatives or BAP for four days in the dark as described in Example 7. MDA levels were measured using a thiobarbituric acid (TBA) method. In detail, 100 mg of fresh plant material was homogenized by high speed shaking in a ball mill (MM301, Retsch, Germany) with 1 mL of 70% methanol. The crude extract was centrifuged at 10,000×g for 5 min, and 100 μL aliquot of supernatant was vortexed with 100 μL of 0.5% (w/v) TBA containing 0.1% (w/v) trichloroacetic acid, and the resulting solution was then incubated for 30 min at 95° C. The samples were quickly cooled on ice and centrifuged for 5 min at 1000 g. The absorbance of supernatant was measured at 532 nm with background subtraction at 600 nm and the amount of MDA-TBA complex was calculated from the coefficient of absorbance 155 mM^−1 cm^−1.

Data set [4] deals with Arabidopsis thaliana (wild-type Col-0). Description: Root growth and lateral root formation of Arabidopsis. The class given is in vivo. As to conditions: 10 nM; for Lateral root number / Primary root lenght: two weeks after transfer. The procedure: To investigate in vivo effect of the new derivatives on the root growth and development, seeds of Arabidopsis thaliana (wild-type Col-0) were surface sterilized and sown on vertical plates on half-strength Murashige-Skoog medium (supplied with 0.1% sucrose and 6 g/L phytagel) containing 10 nM BAP or 10 nM 1,2,3-thiadiazol-5-yl-urea derivative, or 0.01% DMSO (solvent control). After vernalization (4 days in the dark, 4° C.) plates were transferred into the growth chamber (22° C., 16/8 light/dark). Two weeks after transfer, seedlings were photographed and root elongation and lateral root formation was scored using Scion image software (Scion Corp., Frederick, Md., USA). At least 40 plants were measured for each treatment.

For data set [5], the system named is detached leaf segments of Triticum aestivum cv. Hereward. The experiment in a line: Senescence bioassay on wheat leaf segments in dark/light conditions. As to conditions: foliar, 168 h, read-out: Senescence bioassay (IC50). The procedure:
as §1
The ability of the novel compounds to retard chlorophyll degradation in detached wheat leaves was tested also in the light conditions. The experiment was performed as described in Example 7 with modifications as follows—the incubation of the leaves with the compounds was done in the dark/light conditions 8/16 (light—100 μmol·m^−2·s^−1) at 22° C. for 7 days. […] The newly prepared substituted 1,2,3-thiadiazol-5-yl urea derivatives of the invention are much stronger anti-senescent compounds in comparison to the BAP in retarding senescence under optimal (dark/light) conditions.

Setting [6] is: dark/light 8/16, 22° C., 7 days.

With `O=C(NCCCS)Nc1cnns1` [Compound 35, 1-(3-thio-propyl)-3-[1,2,3]thiadiazol-5-yl-urea], in data set [1], the IC50 came to 12 µM.

With `O=C(NCCS)Nc1cnns1` [Compound 34, 1-(2-thio-ethyl)-3-[1,2,3]thiadiazol-5-yl-urea], the IC50 in data set [1] was 18 µM.

As to `O=C(NCCCO)Nc1cnns1` [Compound 2, 1-(3-hydroxy-propyl)-3-[1,2,3]thiadiazol-5-yl-urea], in data set [2], the CC50 at 72 h was more than 100 µM. Further, in the data set with wheat leaves, the Ethylene produced is recorded as 293 (±21) nL/g FW. Also, the MDA in data set [3] is 16.4 (±1.6) nmol/g FW. The IC50 in data set [1] (Triticum aestivum, foliar) came out at 9.1 µM; in data set [5] (setting [6]) it was 0.31 µM. Moreover, in data set [4], the Lateral root number was 12 (±6). The Primary root lenght in data set [4] is 39 (±9) mm.

As to `COCCCCCNC(=O)Nc1cnns1` [Compound 9, 1-(5-methoxy-pentyl)-3-[1,2,3]thiadiazol-5-yl-urea], the IC50 in data set [1] (Triticum aestivum, foliar) was determined as 31 µM.

Take `CC(C)=CCNC(=O)Nc1cnns1` [Compound 21, 1-(3-methyl-but-2-enyl)-3-[1,2,3]thiadiazol-5-yl-urea]: the IC50 in data set [1] (Triticum aestivum, foliar) is 97 µM.

Take `O=C(NCCO)Nc1cnns1` [Compound 1, 1-(2-hydroxy-ethyl)-3-[1,2,3]thiadiazol-5-yl-urea]: the IC50 in data set [1] (Triticum aestivum, foliar) was 26 µM.

In the case of `COCC(C)NC(=O)Nc1cnns1` (stereo not drawn) [Compound 28, 1-(2-methoxy-1-methyl-ethyl)-3-[1,2,3]thiadiazol-5-yl-urea], the CC50 at 72 h in data set [2] is more than 100 µM. Besides, the “effect on ethylene evolution compared to control (in words)” value in the data set with wheat leaves (96 h) is “inhibition of ethylene evolution”. For the same compound, the Ethylene produced in the data set on wheat leaves was 246 (±12) nL/g FW. In addition, in data set [3], the MDA is reported as 13.9 (±0.9) nmol/g FW. Also, in data set [1] (Triticum aestivum, foliar), the IC50 stood at 8.6 µM. Moreover, in data set [4], the Lateral root number was 16 (±7) and the Primary root lenght is reported as 41 (±13) mm. For the same compound, the IC50 in data set [5] (setting [6]) turned out to be 0.43 µM.

As to `O=C(NCC1CCCO1)Nc1cnns1` (stereo not drawn) [Compound 75, 1-(tetrahydro-furan-2-yl-methyl)-3-[1,2,3]thiadiazol-5-yl-urea], in data set [2], the CC50 at 72 h was more than 100 µM. For the same compound, in the data set with wheat leaves, the Ethylene produced is 282 (±19) nL/g FW. Also, the MDA in data set [3] is given as 15.2 (±0.7) nmol/g FW. Further, the IC50 in data set [1] (Triticum aestivum, foliar) was 11.2 µM. In data set [4], the Lateral root number is reported as 17 (±6) and the Primary root lenght is 44 (±16) mm. In data set [5] (setting [6]), the IC50 was determined as 0.42 µM.

In the case of `O=C(NCCCCCCBr)Nc1cnns1` [Compound 74, 1-(6-bromo-hexyl)-3-[1,2,3]thiadiazol-5-yl-urea], the “level of membrane lipid peroxidation during dark senescence reduced to” value in data set [3] (compared to untreated control) turned out to be 50.2%.

As to `COC(CNC(=O)Nc1cnns1)OC` [Compound 16, 1-(2,2-dimethoxy-ethyl)-3-[1,2,3]thiadiazol-5-yl-urea], in data set [2], the CC50 at 72 h was more than 100 µM. Also, the Ethylene produced in the data set with wheat leaves was 267 (±23) nL/g FW. In data set [3], the MDA is listed as 11.6 (±1.2) nmol/g FW. Moreover, in data set [1] (Triticum aestivum, foliar), the IC50 is 2.9 µM. Further, in data set [4], the Lateral root number is 19 (±9) and the Primary root lenght was 45 (±9) mm. In addition, the IC50 in data set [5] (setting [6]) stood at 0.16 µM.

On to `O=C(Nc1ccccc1)Nc1cnns1` [TDZ, thidiazuron, reference compound], for which, in the data set with wheat leaves (96 h), the “elevation of ethylene production compared to untreated control” value is reported as 133% and the “times higher production of ethylene than the novel tested compounds” value is “at least 5 times”. Further, in the data set on wheat leaves, the Ethylene produced is listed as 628 (±45) nL/g FW. In data set [4], the Lateral root number is reported as 2.1 (±2) and the Primary root lenght was 10 (±4) mm. Besides, the IC50 in data set [5] was 1.1 µM.

`C#CCNC(=O)Nc1cnns1` [Compound 55, 1-prop-2-ynyl-3-[1,2,3]thiadiazol-5-yl-urea]: the CC50 at 72 h in data set [2] is more than 100 µM. In data set [3], the MDA was 14.1 (±1.1) nmol/g FW. Moreover, the IC50 in data set [1] (Triticum aestivum, foliar) turned out to be 22 µM. Further, in data set [4], the Lateral root number is 15 (±8) and the Primary root lenght is reported as 40 (±10) mm.

Turning to `COCCCCCCNC(=O)Nc1cnns1` [Compound 10, 1-(6-methoxy-hexyl)-3-[1,2,3]thiadiazol-5-yl-urea], in data set [1] (Triticum aestivum, foliar), the IC50 was determined as 45 µM.

Turning to `COCCCCNC(=O)Nc1cnns1` [Compound 8, 1-(4-methoxy-butyl)-3-[1,2,3]thiadiazol-5-yl-urea], in data set [1] (Triticum aestivum, foliar), the IC50 came to 25.5 µM.

Consider “1-(thiophen-2-yl-methyl)-3-[1,2,3]thiadiazol-5-yl-urea [Compound 78]”, for which the IC50 in data set [1] turned out to be 45 µM.

“1-(thiophen-2-yl-methyl)-3-[1,2,3]thiadiazol-5-yl-urea [Compound 76]”: the IC50 in data set [1] was 32 µM.

“1-(3,4-dihydro-2H-pyran-2-yl-methyl)-3-[1,2,3]thiadiazol-5-yl-urea [Compound 82]”: the 50% inhibitory concentration (IC50) in data set [1] is 25 µM.

Turning to `CSCCNC(=O)Nc1cnns1` [Compound 39, 1-(2-methylthio-ethyl)-3-[1,2,3]thiadiazol-5-yl-urea], the IC50 in data set [1] (Triticum aestivum, foliar) amounted to 3.1 µM.

For `c1ccc(CNc2ncnc3nc[nH]c23)cc1` [6-benzylaminopurine (BAP), 6-benzylaminopurine, reference compound], in data set [3] (compared to untreated control), the “effect on peroxidation of membrane lipids (in words)” value was “does not decrease the peroxidation of membrane lipids significantly”. Further, the MDA in data set [3] is 19.1 (±1.7) nmol/g FW. For the same compound, in data set [1] (Triticum aestivum, foliar), the IC50 stood at 155 µM. Further, in data set [4], the “root development (in words)” value was “severely and significantly retarded”; the Lateral root number is on record as 3.6 (±2); the Primary root lenght was 15 (±5) mm. In addition, in data set [5] (setting [6]), the IC50 was 123 µM.

`CSCCCCCNC(=O)Nc1cnns1` [Compound 42, 1-(5-methylthio-pentyl)-3-[1,2,3]thiadiazol-5-yl-urea]: in data set [1] (Triticum aestivum, foliar), the IC50 amounted to 10.5 µM.

(Values after patent publication US9993002B2, “1,2,3-thiadiazol-5yl-urea derivatives, use thereof for regulating plant senescence and preparations containing these derivatives” (USTAV EXPERIMENTALNI BOTANIKY AV CR, V.V.I., priority 2014, dated 2018).)
